How the values were obtained:
[1] = test system: PSMA Fab (SEQ ID NOs: 19, 20); assay: PSMA Fab binding to peptides, ELISA; settings: for EC50: PSMA Fab binding to biotinylated peptide, ELISA
Experimental: Peptides of Table 9 were evaluated for their ability to bind to PSMA Fab in a standard enzyme linked immunosorbent assay (ELISA) format. […] PSMA Fab diluted in buffer was then added to the peptide captured plates. Bound antibody was detected using a standard horse radish peroxidase conjugate secondary antibody.

[2] = test system: PSMA Fab (SEQ ID NOs: 19, 20); assay: Kinetic binding of peptides to PSMA Fab, BLI
Experimental: Kinetic binding of the peptides of Table 9 to PSMA Fab (SEQ ID NOs: 19, 20) was evaluated using biolayer interferometry (BLI). Briefly, biotinylated peptides were loaded onto a streptavidin coated Octet® V SAX biosensor, quenched in biocytin, and baselined in buffer. […] After a short association period, sensors were transferred into buffer and the dissociation of bound Ab-1 was measured. Association and dissociation signals were recorded in real time and analyzed using a 1:1 binding model within the instrument software. Analysis using a 1:1 binding model enabled the calculation of the on and off rate constant as well as affinity, Kn.

[3] = molecular target: anti-CD28 Fab (SEQ ID NOs: 696, 697); assay: anti-CD28 Fab binding to peptides, ELISA; settings: for EC50: anti-CD28 Fab
[4] = test system: anti-CD28 Fab (SEQ ID NOs: 696, 697); assay: Kinetic binding of peptides to anti-CD28 Fab, BLI; settings: for kdis / kon: Table 30, BLI; for Off rate t½: Table 26
[5] = molecular target: Ab-15 (anti-CD28 scFv of SEQ ID NO: 9); assay: Ab-15 (anti-CD28 scFv) binding to peptides, ELISA; set-up: species or system human; settings: Table 20; Ab-15 binding to plate-captured biotinylated peptide or CD28-biotin
Experimental: Ab-15 diluted in buffer was then added to the peptide captured plates. Bound antibody was detected using a standard horse radish peroxidase conjugate secondary antibody.

[6] = molecular target: anti-CD28 scFv harbored in Ab-15 binding to the CD28 antigen; assay: Inhibition of Ab-15 binding to CD28 by peptides, competition ELISA; settings: Table 20; fixed Ab-15 pre-incubated with 0-100 μM titrated peptide, CD28 antigen coated plates
Experimental: Ab-15 fixed at I nanomolar (nM) concentration was pre-incubated with 0-100 micromolar (μM) titrated peptides. After a short pre-incubation period, the mixture of titrated peptide with fixed Ab-15 were added to the CD28 antigen coated plates. After a short incubation on the plates, bound Ab-15 was detected with a standard horse radish peroxidase conjugated secondary antibody.

[7] = molecular target: anti-CD28 scFv (disulfide) (SEQ ID NO: 10) binding to CD28 antigen; assay: Inhibition of anti-CD28 scFv (disulfide) binding to CD28 by peptides, competition ELISA; settings: anti-CD28 scFv (disulfide) fixed at 0.3 nM, 0-100 μM peptides
[8] = molecular target: anti-CD28 scFv (disulfide) (SEQ ID NO: 10); assay: anti-CD28 scFv (disulfide) binding to peptides, ELISA; settings: Table 27
Experimental: Peptides were evaluated for their ability to bind to ant-CD28 Fab (SEQ ID NOs: 696.697) or anti-CD28 scFv (disulfide) (SEQ ID NO: 10) in a standard ELISA format as described above.

[9] = molecular target: anti-CD28 scFv (SEQ ID NO: 9); assay: Kinetic binding of anti-CD28 scFv to peptides, bio-layer interferometry (Octet RED96); settings: Table 36; anti-CD28 scFv titrated 100-12.5 nM, 200 nM peptide loaded
Experimental: (§1) Briefly, streptavidin biosensors were loaded with biotinylated peptides and baselined in buffer. […] After a short association period, sensors were transferred into buffer and the dissociation of bound anti-CD28 scFv was measured. The timing and steps of the experiment are shown in the accompanying table. Association and dissociation signals were recorded in real time and analyzed using a 1:1 binding model within the instrument software. Analysis using a 1:1 binding model enabled the calculation of the on and off rate constants as well as affinity, KD.
as §1, with “KD. FIGS. 70A-70F illustrate kinetic binding of anti-CD28 scFv binding to peptides as measured by Octet. FIGS. 70G-70U illustrate kinetic binding of peptides to the anti-CD28 scFv as measured by Octet.” for “KD.”

[10] = molecular target: anti-CD28 Fab (SEQ ID NOs: 696, 697) binding to CD28 antigen; assay: Inhibition of anti-CD28 Fab binding to CD28 by peptides, competition ELISA (incl. alanine scanning); settings: Table 25; anti-CD28 Fab fixed at 1 nM, 0-100 μM peptides

With LMKWCTPRWMCAAE [Peptide-179] the “binding to the PSMA Fab” value [1] was “strong binding”, the EC50 ([1]; Table 38) was 5.9 nM and the EC50 ([1]; Table 39) was 120 nM. For the same sequence, the “Off rate t1/2” value ([2]; Table 38, 1:1 binding model) was under 1 min and the “Off rate t1/2” value ([2]; Table 39, 1:1 binding model) was 1.09 min.
Sequence YCEGHLPEYRNKCL [Peptide-132] has an EC50 ([3]; Table 26) of 3.2 nM and a kdis [4] of 0.0138 s⁻¹.
With YCEGHLPEYIQKCL [Peptide-134] the “Off rate t½” value [4] was 0.9 min and the kdis [4] was 0.0115 s⁻¹.
CFYAEYYDQVYSFC [Peptide-18] showed an EC50 [5] of 32.2 nM and an IC50 [6] of 3250 nM.
MCQWDKINYWMDCD [Peptide-205] was tested, and the “Off rate t1/2” value ([2]; Table 39, 1:1 binding model) was under 1 min.
With SCAAGASYAWPYCA [Peptide-106] the IC50 ([7]; Table 29) was over 100000 nM.
YCEGHLPEYREKCL [Peptide-126] showed a kdis [4] of 0.0191 s⁻¹.
In the case of SKLLCVPPWMCYHV [Peptide-194], the “Off rate t1/2” value ([2]; Table 39, 1:1 binding model) is reported as under 1 min.
MDWCPRDLWVHCFA [Peptide-41] gave an EC50 ([3]; Table 24) of 490 nM, an EC50 [8] of 98.5 nM and a Kd [9] of 42.3 nM. It also gave a kdis [9] of 0.00154 s⁻¹ and a kon [9] of 36400 M⁻¹ s⁻¹.
For MCQWDELNYWMDCD [Peptide-202], the “Off rate t1/2” value ([2]; Table 39, 1:1 binding model) was under 1 min.
With QCTWNEKTWWMECE [Peptide-204] the “Off rate t1/2” value ([2]; Table 39, 1:1 binding model) was under 1 min.
SCAAGASYAWPYCL [Peptide-92] was tested, and the “binding to the anti-CD28 Fab” value [3] was “strong binding”, the EC50 ([3]; Table 24) was 54 nM and the EC50 ([3]; Table 25) was 18.9 nM. It also gave an EC50 [8] of over 1000 nM and an IC50 ([7]; Table 27) of over 100000 nM.
For YCEGHLPEYIWKCL [Peptide-135], the EC50 ([3]; Table 26) was 2.1 nM and the “Off rate t½” value [4] was 0.9 min.
YCAGHAWQYINKCL [Peptide-87] was tested, and the “binding to the anti-CD28 Fab” value [3] was “strong binding”, the EC50 ([3]; Table 24) was 49 nM and the EC50 ([3]; Table 26) was 30.6 nM. For the same sequence, the EC50 [8] was 156 nM, the “Off rate t½” value [4] was 0.7 min and the kdis [4] was 0.0202 s⁻¹. The kon [4] was 10000 M⁻¹ s⁻¹.
For YCEGHAPEYIAKCL [Peptide-121], the EC50 ([3]; Table 26) was 7.1 nM, the kdis [4] was 0.028 s⁻¹ and the kon [4] was 33700 M⁻¹ s⁻¹.
Sequence YCAGHAWQYANKCL [Peptide-113] has an IC50 ([7]; Table 29) of over 100000 nM.
LCAAGFTYPWPLCL [Peptide-155] showed an EC50 ([3]; Table 25) of over 1000 nM and an IC50 [10] of over 100000 nM.
With YCEGHLPEYIEKCL [Peptide-120] the EC50 ([3]; Table 26) was 3.1 nM, the kdis [4] was 0.0239 s⁻¹ and the kon [4] was 25800 M⁻¹ s⁻¹.
For IAVLCQPNWMCAGF [Peptide-180], the “binding to the PSMA Fab” value [1] was “strong binding”, the EC50 ([1]; Table 38) was 33 nM and the “Off rate t1/2” value ([2]; Table 38, 1:1 binding model) was under 1 min. For the same sequence, the “Off rate t1/2” value ([2]; Table 39, 1:1 binding model) was 0.75 min.
Sequence YCEGHLPEYLAKCL [Peptide-127] has an EC50 ([3]; Table 26) of 1.7 nM and a kdis [4] of 0.0118 s⁻¹.
Work on ADWCPRERWVDCFF [Peptide-19] yielded an EC50 [5] of 32.5 nM and an IC50 [6] of 4420 nM.
Sequence LCKPGVPYKWPTCL [Peptide-156] has an EC50 ([3]; Table 25) of over 1000 nM and an IC50 [10] of over 100000 nM.

Source: patent US20260242478A1, “ANTIBODIES FOR TARGETING PSMA AND CD28 AND USES THEREOF” (Janux Therapeutics, Inc., priority 2023, published 2026)
